Reference: ChEMBL document CHEMBL1926647, “Discovery of 4-aminomethylphenylacetic acids as γ-secretase modulators via a scaffold design approach” (Bioorg Med Chem Lett, 2011)
pEC50, pIC50: −log10 of the molar value. The source made the active and inactive calls. The rule behind the calls is not given here.

Columns and labels:
[1] = Drug uptake in wild type CF1 mouse brain at 30 mg/kg, po after 4 hrs; format: ADME, organism-based; design: dose 30 mg/kg, route oral; details: read-out: Drug uptake
[2] = Drug uptake in wild type CF1 mouse plasma at 30 mg/kg, po after 4 hrs; format: ADME, organism-based; design: dose 30 mg/kg, route oral
[3] = Modulation of gamma-secretase expressed in CHO cells co-expressing APP V717F mutant assessed as reduction in amyloid beta42 production after 17 hrs by ELISA; format: cell-based
Mus musculus [4] = experiment: Inhibition of gamma-secretase-mediated cleavage of APP in wild type CF1 mouse brain assessed as inhibition of amyloid beta42 production at 30 mg/kg, po after 4 hrs by ELISA; format: functional; details: for inhibition in vivo at 30 mg/kg: Mus musculus, CF1, Brain, po, 4 h
Mus musculus [5] = experiment: Inhibition of gamma-secretase-mediated cleavage of APP in wild type CF1 mouse brain assessed as inhibition of amyloid beta42 production at 50 mg/kg, po after 4 hrs by ELISA; format: functional
[6] = Oral bioavailability in wild type CF1 mouse; format: ADME, organism-based; details: in vivo
[7] = Clearance in wild type CF1 mouse; format: ADME, organism-based; details: in vivo
[8] = Half life in wild type CF1 mouse; format: ADME, organism-based; details: in vivo
[9] = Drug uptake in wild type CF1 mouse plasma at 50 mg/kg, po after 4 hrs; format: ADME, organism-based; design: dose 50 mg/kg, route oral
[10] = Drug uptake in wild type CF1 mouse brain at 50 mg/kg, po after 4 hrs; format: ADME, organism-based; design: dose 50 mg/kg, route oral; details: read-out: Drug uptake
MC-IXC/H4 = experiment: Inhibition of Notch intracellular domain in human MC-IXC/H4 cells assessed as reduction in HES1 protein expression at 10 uM after 24 hrs Western blotting; format: cell-based
CHO [11] = experiment: Modulation of gamma-secretase expressed in CHO cells co-expressing APP V717F mutant assessed as increase in amyloid beta38 secretion after 17 hrs by ELISA; format: cell-based
CHO [12] = experiment: Modulation of gamma-secretase expressed in CHO cells co-expressing APP V717F mutant assessed as effect on amyloid beta40 production after 17 hrs by ELISA; format: cell-based
[13] = Clearance in F344 rat at 2 mg/kg; format: ADME, organism-based; design: dose 2 mg/kg; details: in vivo
[14] = Half life in F344 rat at 2 mg/kg; format: ADME, organism-based; design: dose 2 mg/kg; details: in vivo
Cytochrome P450 3A4 = Cytochrome P450 3A4 (Homo sapiens, UniProt P08684); experiment: Inhibition of human CYP3A4; format: ADME
Cytochrome P450 3A4, sequence (P08684 whole entry): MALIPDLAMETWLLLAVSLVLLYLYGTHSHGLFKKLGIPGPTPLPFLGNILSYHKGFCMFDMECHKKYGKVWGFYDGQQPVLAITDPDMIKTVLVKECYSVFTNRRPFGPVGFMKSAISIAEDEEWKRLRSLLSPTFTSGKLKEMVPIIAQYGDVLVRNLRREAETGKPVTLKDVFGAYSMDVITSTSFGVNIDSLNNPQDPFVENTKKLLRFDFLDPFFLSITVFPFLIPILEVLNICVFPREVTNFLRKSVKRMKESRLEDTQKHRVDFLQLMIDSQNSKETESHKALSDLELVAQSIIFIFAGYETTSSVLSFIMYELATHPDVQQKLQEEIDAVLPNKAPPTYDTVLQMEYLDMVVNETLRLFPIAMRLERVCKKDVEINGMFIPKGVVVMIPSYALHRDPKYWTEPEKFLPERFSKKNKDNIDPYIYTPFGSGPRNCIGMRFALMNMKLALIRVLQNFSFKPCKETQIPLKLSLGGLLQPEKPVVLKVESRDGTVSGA

[15] = Cmax in dog at 0.5 mg/kg; format: ADME, organism-based, Canis lupus familiaris; design: dose 0.5 mg/kg; details: in vivo
Cytochrome P450 2C9 = Cytochrome P450 2C9 (Homo sapiens, UniProt P11712); experiment: Inhibition of human CYP2C9; format: ADME
Cytochrome P450 2C9, sequence (P11712 whole entry): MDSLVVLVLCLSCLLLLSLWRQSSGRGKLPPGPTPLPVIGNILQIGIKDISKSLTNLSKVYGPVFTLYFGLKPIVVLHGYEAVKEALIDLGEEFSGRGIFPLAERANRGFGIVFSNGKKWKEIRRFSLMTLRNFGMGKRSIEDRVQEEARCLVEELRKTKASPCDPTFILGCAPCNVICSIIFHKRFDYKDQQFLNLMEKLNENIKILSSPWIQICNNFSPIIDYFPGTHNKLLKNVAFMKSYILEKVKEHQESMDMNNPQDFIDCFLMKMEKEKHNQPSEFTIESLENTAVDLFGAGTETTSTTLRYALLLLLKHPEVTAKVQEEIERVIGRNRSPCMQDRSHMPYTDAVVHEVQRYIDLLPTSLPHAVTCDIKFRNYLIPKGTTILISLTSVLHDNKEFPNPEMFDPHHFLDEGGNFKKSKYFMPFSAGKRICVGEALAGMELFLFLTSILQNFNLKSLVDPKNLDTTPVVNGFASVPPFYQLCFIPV

Caco-2 = experiment: Ratio of permeability from basolateral to apical side to apical to basolateral side in human Caco2 cells; format: ADME, cell-based
Homo sapiens = organism: Homo sapiens; experiment: Liver blood flow in human; format: ADME, organism-based
[16] = Ratio of drug level in brain to plasma in wild type CF1 mouse at 30 mg/kg, po after 4 hrs; format: ADME, organism-based; design: dose 30 mg/kg, route oral; details: read-out: BPR
[17] = Apparent permeability from apical to basolateral side in human Caco2 cells; format: ADME, cell-based; details: caco-2
[18] = Half life in dog at 0.5 mg/kg; format: ADME, organism-based, Canis lupus familiaris; design: dose 0.5 mg/kg; details: in vivo
[19] = target: Voltage-gated inwardly rectifying potassium channel KCNH2 (Homo sapiens, UniProt Q12809); experiment: Inhibition of human ERG at 10 uM
Voltage-gated inwardly rectifying potassium channel KCNH2, sequence (Q12809 whole entry): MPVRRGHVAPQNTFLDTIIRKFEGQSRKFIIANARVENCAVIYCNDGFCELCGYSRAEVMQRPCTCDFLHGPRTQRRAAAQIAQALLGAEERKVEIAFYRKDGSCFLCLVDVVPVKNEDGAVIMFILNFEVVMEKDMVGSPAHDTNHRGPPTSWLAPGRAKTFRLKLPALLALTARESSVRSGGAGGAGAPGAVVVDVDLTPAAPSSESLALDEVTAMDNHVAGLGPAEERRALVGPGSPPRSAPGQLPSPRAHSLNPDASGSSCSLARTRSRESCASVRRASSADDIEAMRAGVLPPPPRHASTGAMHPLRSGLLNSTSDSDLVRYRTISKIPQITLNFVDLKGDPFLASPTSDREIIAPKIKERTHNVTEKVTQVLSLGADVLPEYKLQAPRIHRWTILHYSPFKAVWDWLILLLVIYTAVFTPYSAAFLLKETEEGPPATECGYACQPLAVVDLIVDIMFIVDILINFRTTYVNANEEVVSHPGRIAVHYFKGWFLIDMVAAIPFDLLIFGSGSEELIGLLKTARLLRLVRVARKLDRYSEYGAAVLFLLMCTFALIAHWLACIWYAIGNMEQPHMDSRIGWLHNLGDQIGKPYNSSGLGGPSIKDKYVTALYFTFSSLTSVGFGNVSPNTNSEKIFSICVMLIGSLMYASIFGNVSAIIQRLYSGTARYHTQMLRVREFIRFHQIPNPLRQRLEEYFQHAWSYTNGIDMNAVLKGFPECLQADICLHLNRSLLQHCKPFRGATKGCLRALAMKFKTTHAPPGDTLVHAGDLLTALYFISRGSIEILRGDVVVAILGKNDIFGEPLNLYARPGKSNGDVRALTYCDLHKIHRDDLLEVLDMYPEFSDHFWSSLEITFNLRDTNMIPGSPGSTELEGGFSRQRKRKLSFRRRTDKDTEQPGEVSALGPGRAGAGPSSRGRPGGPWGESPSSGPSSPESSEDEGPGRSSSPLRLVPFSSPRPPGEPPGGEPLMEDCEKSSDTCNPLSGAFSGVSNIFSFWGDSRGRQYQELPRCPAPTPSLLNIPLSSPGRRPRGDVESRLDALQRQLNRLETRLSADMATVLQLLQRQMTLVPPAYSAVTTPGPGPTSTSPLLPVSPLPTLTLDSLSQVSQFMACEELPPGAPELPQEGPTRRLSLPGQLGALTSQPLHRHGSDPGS

Cytochrome P450 1A2 = target: T1, Cytochrome P450 1A2 (Homo sapiens, UniProt P05177); experiment: Inhibition of human CYP1A2; format: ADME
T1 sequence (P05177 whole entry): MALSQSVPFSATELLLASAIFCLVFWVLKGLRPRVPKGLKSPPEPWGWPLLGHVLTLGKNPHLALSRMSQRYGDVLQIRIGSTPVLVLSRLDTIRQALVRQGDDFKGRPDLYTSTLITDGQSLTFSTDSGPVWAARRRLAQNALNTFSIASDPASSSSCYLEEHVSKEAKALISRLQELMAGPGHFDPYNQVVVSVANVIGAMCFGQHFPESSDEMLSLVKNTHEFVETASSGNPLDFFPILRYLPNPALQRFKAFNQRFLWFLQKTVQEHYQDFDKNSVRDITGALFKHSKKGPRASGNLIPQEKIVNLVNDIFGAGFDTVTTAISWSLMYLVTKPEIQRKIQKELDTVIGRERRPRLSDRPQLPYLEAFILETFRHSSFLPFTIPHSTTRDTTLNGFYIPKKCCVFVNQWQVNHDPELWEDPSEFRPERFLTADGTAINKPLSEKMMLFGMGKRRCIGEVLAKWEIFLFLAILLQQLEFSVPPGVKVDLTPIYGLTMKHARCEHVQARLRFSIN

[20] = Clearance in dog at 0.5 mg/kg; format: ADME, organism-based, Canis lupus familiaris; design: dose 0.5 mg/kg; details: in vivo
Rattus norvegicus [21] = experiment: Dose normalised AUC in F344 rat at 2 mg/kg; format: ADME, organism-based; design: dose 2 mg/kg; details: in vivo
Cytochrome P450 2D6 = Cytochrome P450 2D6 (Homo sapiens, UniProt P10635); experiment: Inhibition of human CYP2D6; format: ADME
Cytochrome P450 2D6, sequence (P10635 whole entry): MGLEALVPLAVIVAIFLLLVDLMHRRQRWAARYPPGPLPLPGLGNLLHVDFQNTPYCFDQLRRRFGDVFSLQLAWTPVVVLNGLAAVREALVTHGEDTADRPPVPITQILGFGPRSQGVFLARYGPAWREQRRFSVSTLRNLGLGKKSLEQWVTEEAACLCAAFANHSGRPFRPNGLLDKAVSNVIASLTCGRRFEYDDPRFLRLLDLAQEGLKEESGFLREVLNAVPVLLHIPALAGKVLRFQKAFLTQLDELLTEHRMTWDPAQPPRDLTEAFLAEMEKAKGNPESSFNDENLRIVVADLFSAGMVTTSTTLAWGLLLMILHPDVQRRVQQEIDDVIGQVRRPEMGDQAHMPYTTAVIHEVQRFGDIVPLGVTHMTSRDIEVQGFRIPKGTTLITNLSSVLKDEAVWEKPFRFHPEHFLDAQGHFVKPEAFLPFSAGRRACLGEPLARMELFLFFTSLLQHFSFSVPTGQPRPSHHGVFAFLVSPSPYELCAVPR

Mus musculus [22] = experiment: Inhibition of gamma-secretase-mediated cleavage of APP in wild type CF1 mouse brain assessed as inhibition of amyloid beta42 production at 12.5 mg/kg, po after 4 hrs by ELISA; format: functional; details: Mus musculus, CF1, Brain, po, 4 h
[23] = Drug uptake in wild type CF1 mouse brain at 12.5 mg/kg, po after 4 hrs; format: ADME, organism-based; design: dose 12.5 mg/kg, route oral; details: read-out: Drug uptake
Rattus norvegicus [24] = organism: Rattus norvegicus; experiment: Liver blood flow in rat; format: ADME, organism-based
Cytochrome P450 2C19 = Cytochrome P450 2C19 (Homo sapiens, UniProt P33261); experiment: Inhibition of human CYP2C19; format: ADME
Cytochrome P450 2C19, sequence (P33261 whole entry): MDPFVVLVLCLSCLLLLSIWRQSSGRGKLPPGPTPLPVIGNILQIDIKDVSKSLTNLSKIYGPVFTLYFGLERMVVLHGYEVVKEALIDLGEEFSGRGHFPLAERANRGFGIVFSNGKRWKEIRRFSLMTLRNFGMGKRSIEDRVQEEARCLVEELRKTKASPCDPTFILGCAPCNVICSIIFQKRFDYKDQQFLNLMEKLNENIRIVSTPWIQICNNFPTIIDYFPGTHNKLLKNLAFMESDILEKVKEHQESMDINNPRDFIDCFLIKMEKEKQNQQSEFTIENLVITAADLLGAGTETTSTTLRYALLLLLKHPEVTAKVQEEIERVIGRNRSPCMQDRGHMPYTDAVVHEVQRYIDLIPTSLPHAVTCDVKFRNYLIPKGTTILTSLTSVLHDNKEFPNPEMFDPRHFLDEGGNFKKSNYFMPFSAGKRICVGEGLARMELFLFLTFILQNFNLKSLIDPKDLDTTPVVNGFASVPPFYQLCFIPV

Canis familiaris = experiment: Dose normalised AUC in dog at 0.5 mg/kg; format: ADME, organism-based, Canis lupus familiaris; design: dose 0.5 mg/kg; details: in vivo

CC(C)CCC(c1ccc(C(C)(C)C(=O)O)cc1-c1ccc(C(F)(F)F)cc1)N1CCC(C(F)(F)F)CC1 (stereo unspecified)
concentration at 4 h [1]: 13 µM | concentration at 4 h [2]: 21 µM | pEC50 [3]: 6.34 | inhibition in vivo at 30 mg/kg (Mus musculus [4]): 20%

CC(C)CCC(c1ccc(CC(=O)O)cc1-c1ccc(C(F)(F)F)cc1)N1CCC(C(F)(F)F)CC1 (stereo unspecified)
pEC50 [3]: 6.21 | inhibition in vivo at 50 mg/kg (Mus musculus [5]): 35% | bioavailability [6]: 100% | clearance [7]: 3.2 mL/min/kg | half-life [8]: 2.9 h | concentration at 4 h [9]: 32 µM | concentration at 4 h [10]: 17 µM

CC(C)CCC(c1ccc(CC(=O)O)cc1-c1ccc(C(F)(F)F)cc1)N1CC[C@H](F)C1 (stereo partly specified)
pEC50 [3]: 5.23

CC(C)(C)CC(c1ccc(CC(=O)O)cc1-c1ccc(C(F)(F)F)cc1)N1CCC(C(F)(F)F)CC1 (single isomer, unassigned; enantiomer 2)
inhibition (MC-IXC/H4): inactive

CC(C)CCN(Cc1ccc(C(=O)O)cc1-c1ccc(C(F)(F)F)cc1)c1ccc(C(F)(F)F)cc1
pEC50 [3]: 5.27

O=C(O)Cc1ccc(C(C2CCCCC2)N2CCC(C(F)(F)F)CC2)c(-c2ccc(C(F)(F)F)cc2)c1 (stereo unspecified)
concentration at 4 h [1]: 10 µM | concentration at 4 h [2]: 23 µM | pEC50 [3]: 6.38 | inhibition in vivo at 30 mg/kg (Mus musculus [4]): 15%

CC(C)CCN(Cc1ccc(CC(=O)O)cc1-c1ccc(C(F)(F)F)cc1)c1ccc(C(F)(F)F)cc1
Activity (CHO [11]): Active | pEC50 [3]: 5.82 | inhibition (Mus musculus [5]): inactive | Activity (CHO [12]): inactive | concentration at 4 h [9]: 15 µM | concentration at 4 h [10]: 0.6 µM

CC(C)CCN(Cc1ccc(C(CC(C)C)C(=O)O)cc1-c1ccc(C(F)(F)F)cc1)[C@H]1CC[C@H](C(C)(C)C)CC1 (mixture of isomers)
pEC50 [3]: 6.92 | inhibition (Mus musculus [5]): inactive | concentration at 4 h [10]: 0.7 µM

CC(C)CCN(Cc1ccc(CC(=O)O)cc1-c1ccc(C(F)(F)F)nc1)[C@H]1CC[C@H](C(C)(C)C)CC1
pEC50 [3]: 5.30

CC(C)(C)CC(c1ccc(CC(=O)O)cc1-c1ccc(C(F)(F)F)cc1)N1CCC(C(F)(F)F)CC1 (racemic)
concentration at 4 h [1]: 32 µM | clearance [13]: 2.5 mL/min/kg | concentration at 4 h [2]: 37 µM | half-life [14]: 9.6 h | pEC50 [3]: 6.20 | pIC50 (Cytochrome P450 3A4): < 5.00 | Cmax [15]: 1120 ng/mL | pIC50 (Cytochrome P450 2C9): < 5.00 | Ratio (Caco-2): 1.9 | QH (Homo sapiens): 39% | Kp at 4 h [16]: 1 | Papp A→B [17]: 16 ×10⁻⁶ cm/s | half-life [18]: 10.1 h | inhibition (INH) [19]: Not Active | pIC50 (Cytochrome P450 1A2): < 5.00 | clearance [20]: 0.6 mL/min/kg | AUC/dose (Rattus norvegicus [21]): 5495 ng·kg·h/mL/mg | pIC50 (Cytochrome P450 2D6): < 5.00 | inhibition in vivo at 12.5 mg/kg (Mus musculus [22]): 25% | inhibition (INH) (Mus musculus [4]; 30 mg/kg): 50% | concentration at 4 h [23]: 9 µM | QH (Rattus norvegicus [24]): 31% | pIC50 (Cytochrome P450 2C19): < 5.00 | AUC/dose (Canis familiaris): 28712 ng·kg·h/mL/mg

CC(C)CCC(c1ccc(CC(=O)O)cc1-c1ccc(C(F)(F)F)cc1)N1CCC(F)(F)C1 (stereo unspecified)
pEC50 [3]: 5.48

CC(C)CCC(NC1CCC(C(C)(C)C)CC1)c1ccc(CC(=O)O)cc1-c1ccc(C(F)(F)F)cc1 (stereo unspecified)
pEC50 [3]: 6.35

O=C(O)Cc1ccc(C(CCC(F)(F)F)N2CCC(C(F)(F)F)CC2)c(-c2ccc(C(F)(F)F)cc2)c1 (stereo unspecified)
pEC50 [3]: 5.85

CC(C)CCC(c1ccc(CC(=O)O)cc1-c1ccc(C(F)(F)F)cc1)N1CCC(C(C)(C)C)CC1 (stereo unspecified)
pEC50 [3]: 5.96
